8 molecules from US20260315436A1, “METHOD OF TREATING DISORDERS WITH SURF1 MALFUNCTION” (Cure Mito Foundation, priority 2023, published 2026) can be followed below.

The test system of data set [1] is GM28012 SURF1 fibroblasts. Put plainly: Seahorse mitochondrial stress test, fibroblast cell line GM28012 (Experiment 3, single compounds). The data set is classed as cell-based, human. The note with it: 48 h; for increase in respiration compared with GM28010: GM28012 vs GM28010. The method, then: (§1) In order to evaluate selected compounds' impact on mitochondrial function in patient-derived fibroblasts compared to controls, three seahorse assays were conducted, Exp. 1: Fibroblast cell line GM28010—single compounds; Exp. 2. Fibroblast cell line GM28010—combination of compounds+ Single compounds; and Exp. 3: Fibroblast cell line GM28012—single compounds. Seahorse XF24 Extracellular Flux Analyzers continuously measure oxygen concentration and proton flux in the cell supernatant over time (Wu et al., 2007). The oxygen concentration and proton flux measurements are converted in OCR and ECAR values. This enables a direct quantification of mitochondrial respiration and glycolysis. The aim of the seahorse assays is to evaluate the impact of selected compounds on mitochondrial function in patient-derived fibroblasts compared to controls. Compounds used in the seahorse assays include posacanazole, sertaconazole, glabridin, zinglibroside (ginsenoside Z R1), AM281, cysteamine bitrartate, PF-06447475, losmapimod, telepravir, miltefosine, incyclinide, poziotinib, and methylene blue.
(§2) • Basal Oxygen Consumption (OCR): This reflects the cellular oxygen usage under basal conditions, encompassing both energy production (ATP turnover) and background oxygen leak from the mitochondria. • Oligomycin Injection: Oligomycin is a compound that inhibits ATP synthase, an enzyme crucial for ATP production within mitochondria. • Oligomycin-resistant Respiration: After oligomycin injection, minimal oxygen consumption persists, representing non-ATP linked oxygen leak from the mitochondria, often termed proton leak. • ATP-linked Respiration: This value is derived by subtracting the oligomycin-resistant respiration from the basal OCR. It signifies the oxygen consumption specifically linked to ATP production through mitochondrial oxidative phosphorylation. • Mitochondrial Bioenergetic Efficiency: This parameter reflects the percentage decrease in oxygen consumption observed after oligomycin injection, indicating the mitochondria's efficiency in utilizing oxygen for ATP generation. • FCCP Injection: FCCP is a chemical that disrupts the link between mitochondrial electron transport and ATP production. • Maximal Respiration: Following FCCP injection, the highest oxygen consumption rate is measured, representing the maximum capacity of the mitochondria to utilize oxygen for respiration. • Spare Respiratory Capacity: This parameter is calculated by subtracting basal respiration from maximal respiration.
GM28010 primary human fibroblasts obtained from patients with SURF1 Leigh syndrome were purchased from the Coriell Cell Repositories (Camden, N.J.; repository number GM28010).
GM00038 primary human fibroblasts purchased from the Coriell Cell Repositories (Camden, N.J., repository number GM00038) and were used as a healthy control.
Fibroblasts were grown in glucose according to recommendation. Cells were plated in XF96 plates in culture medium and plated at 10,000 cells/well. The day after plating, the cells were treated with the compounds. The treatments completed in glucose medium and galactose medium. The compounds were tested at for 48 hours. The compounds were incubated at (37 C, 5% CO2) until the day of the experiment. The fibroblasts were run at passage numbers: GM28012 SURF1 Fibroblasts P5.
The assay medium was 10 mM glucose or galactose DMEM supplemented with 2 mM glutamine and 1 mM pyruvate. Injection Ports for basal glucose: Port A: 2 μM oligomycin; Port B: 2.5 μM FCCP; Port C: 4 μM FCCP; and Port D: 2 μM rotenone and antimycin A.
The data were normalized to cell number per well after the run. The Hoechst-stained nuclei were counted with a Operetta High-Content Imager.

Data set [2] deals with GM28010 SURF1 mutant fibroblasts. Put plainly: Seahorse mitochondrial stress test, fibroblast cell line GM28010 (Experiment 1, single compounds). The data set is classed as cell-based, human. The following applies: 48 h; for ATP-linked respiration / basal respiration: galactose-cultured cells; for increase in ATP-linked respiration / increase in maximal respiration: both glucose and galactose-cultured cells. The method, then: as §1
Fibroblast cell line GM28010 is a primary human fibroblast cell line obtained from patients with SURF1 Leigh syndrome. It was purchased from the Coriell Cell Repositories (Camden, NJ, repository number GM28010). Cell line GM00038 was used as a healthy control for GM28010 and is a primary human fibroblast purchased from the Coriell Cell Repositories (Camden, NJ, repository number GM00038).
Fibroblasts were grown in glucose according to recommendation.
Cells were plated in XF96 plates in culture medium and were plated at 10,000 cells/well.
The day after plating, cells were treated with the compounds in Table 1. The treatments were completed in glucose medium and galactose medium. The compounds were tested at for 48 hours. The compounds were incubated at (37 C, 5% CO2) until the day of the experiment.
*Fibroblasts were run at passage numbers: GM28010 SURF1 Fibroblasts P5; GM00038F controls P9.
• Assay Medium: 10 mM glucose or galactose DMEM supplemented with 2 mM glutamine and 1 mM pyruvate. • Injection Ports for basal glucose: Port A: 2 μM oligomycin; Port B: 2.5 μM FCCP; Port C: 4 μM FCCP; and Port D: 2 μM rotenone and antimycin A.
Data were normalized to cell number per well after the run. The Hoechst-stained nuclei were counted with the Operetta High-Content Imager.
as §2

The mark [3] stands for this setting: glucose and galactose conditions.
[4] abbreviates: 10 μM, listed as Ginsenoside Z R1 (Zinglibroside).
Setting [5] is: glucose and galactose conditions, listed as glabridin.
Setting [6] is: glucose-cultured cells, listed as incyclinide.
[7] abbreviates: glucose and galactose conditions, listed as miltefosine.

“Also recorded” adds a separate entry of the source.

For `Cc1c(C(=O)NN2CCOCC2)nn(-c2ccc(Cl)cc2Cl)c1-c1ccc(I)cc1` [AM281], the ATP production rates entry in data set [1] was “increased ATP production rates”. The ATP via glycolysis result in data set [1] (1 μM and 5 μM) is “OCR. ↑ATP via glycolysis @”. Also, in data set [1] (setting [3]), the “maximal respiration (maximal OCR)” value was “dose-dependent decreased maximal respiration”. The “ATP production through glycolysis” value in data set [2] (5 and 10 μM) is given as “increase in ATP production primarily through glycolysis”. Further, the respiration entry in data set [2] (setting [3]) is listed as “did not result in major changes”.
Turning to `CC1(C)CC[C@]2(C(=O)O)CC[C@]3(C)C(=CC[C@@H]4[C@@]5(C)CC[C@H](O[C@@H]6O[C@H](C(=O)O)[C@@H](O)[C@H](O)[C@H]6O[C@@H]6O[C@H](CO)[C@@H](O)[C@H](O)[C@H]6O)C(C)(C)[C@@H]5CC[C@]43C)[C@@H]2C1` [Ginsenoside Z R1], the “ATP production through OXPHOS” value is listed as “increase in ATP production” in data set [1]; “increased ATP production through OXPHOS” in data set [1] (1 μM); “increase in ATP production” in data set [2] (setting [4]); “both conditions: ↑ATP via” in data set [2] (10 μM, listed as Zinglibroside); “increase in ATP production” in data set [2] (10 μM, listed as zinglibroside). Further, the “ATP production through glycolysis” value is on record as “increase in ATP production” in data set [1]; “increase in ATP production” in data set [2] (setting [4]); “both conditions: ↑ATP via” in data set [2] (10 μM, listed as Zinglibroside); “increase in ATP production” in data set [2] (10 μM, listed as zinglibroside). Moreover, in data set [1] (1 μM), the “total ATP production rate” value is “increased ATP production through OXPHOS and total ATP production rate”. Also, the “maximal respiration (maximal OCR)” value in data set [1] (setting [3]) is reported as “did not result in changes”. For the same molecule, the maximal respiration entry in data set [2] (setting [3]) is recorded as “did not result in changes”.
Take `CC1(C)C=Cc2c(ccc3c2OC[C@@H](c2ccc(O)cc2O)C3)O1` [Glabridin, glabridin]: the “maximal respiration (maximal OCR)” value is given as “↓ maximal OCR in both” in data set [1] (setting [3]) and “decreased maximal respiration” in data set [1] (setting [5]). Also, the respiration result in data set [2] (setting [3]) and in data set [2] (setting [5]) was “did not result in major changes” each time.
Regarding `NC(=O)C1=C(O)C[C@@H]2C[C@@H]3Cc4cccc(O)c4C(=O)C3=C(O)[C@]2(O)C1=O` [Incyclinide, incyclinide], the “all respiratory parameters measured” value in data set [1] (glucose-cultured cells) and in data set [2] (glucose-cultured cells) was “dose-dependent decrease” each time. The toxicity entry in data set [1] (glucose-cultured cells) is reported as “Toxicity observed in glucose”; in data set [1] (setting [6]), “showed toxicity”; in data set [2] (glucose-cultured cells) it was “Toxicity in glucose”; in data set [2] (setting [6]), “some toxicity”. Besides, the ATP-linked respiration result in data set [2] is “↑ basal respiration and ATP-”; in data set [2] (listed as incyclinide), “some increase”. In addition, the basal respiration result in data set [2] is “↑ basal respiration and ATP-”; in data set [2] (listed as incyclinide), “some increase”.
On to `Cc1c(F)cc(C(=O)NC2CC2)cc1-c1ccc(C(=O)NCC(C)(C)C)cn1` [Losmapimod, losmapimod], for which, in data set [1], the “ATP production through OXPHOS” value is “Increased ATP-linked respiration and ATP production through OXPHOS”; the “ATP production through glycolysis” value is “glucose-cultured cells. ↓ATP”; the “total ATP production rate” value is recorded as “without changes; also recorded: maintained”; the “increase in respiration compared with GM28010” value is reported as “did not increase respiration as much”. Further, in data set [1] (listed as losmapimod), the “increase in respiration compared with GM28010” value is “not as impressive as was observed in GM28010”, the “ATP production through glycolysis” value was “decrease in ATP production through glycolysis” and the “total ATP production rate” value is “maintained”. Moreover, the ATP-linked respiration entry in data set [1] (glucose-cultured cells, listed as losmapimod) is recorded as “increased in ATP-linked respiration”. The ATP-linked respiration entry in data set [1] (medium not stated) is reported as “Increased ATP-linked respiration”. Further, in data set [2], the “ATP production through glycolysis” value is given as “conditions. ↓ ATP production”, the “increase in ATP-linked respiration” value is on record as 12-15% increases in and the “increase in maximal respiration” value is listed as 12-15% increases in. In addition, in data set [2] (listed as losmapimod), the “increase in ATP-linked respiration” value was 12-15%, the “increase in maximal respiration” value was 12-15% and the “ATP production through glycolysis” value was “decrease in ATP production through glycolysis”. For the same molecule, the respiration result in data set [2] (setting [3]) is “Increased respiration”. Also, the increase in respiration entry in data set [2] (glucose and galactose culture conditions) is “up to 15%”.
As to `CCCCCCCCCCCCCCCCOP(=O)([O-])OCC[N+](C)(C)C` [Miltefosine, miltefosine], the “ATP production through glycolysis” value was “both conditions; ↑ in ATP” in data set [1] and “increase in ATP production through glycolysis” in data set [1] (listed as miltefosine). Also, the respiration result in data set [1] (setting [7]) and in data set [2] (setting [7]) was “did not result in major changes” throughout.
As to `N#Cc1cccc(-c2c[nH]c3ncnc(N4CCOCC4)c23)c1` [PF-06447475], the “ATP production through glycolysis” value in data set [1] was “increase in ATP production glycolysis; also recorded: both conditions. ↑ ATP”. For the same molecule, the “total ATP production rate” value in data set [1] (1 μM) is “increased the total ATP Production rate”. Also, the “maximal respiration (maximal OCR)” value in data set [1] (setting [3]) is listed as “did not result increase maximal respiration”. For the same molecule, in data set [2], the “ATP production through OXPHOS” value is listed as “increase in ATP production; also recorded: both conditions. ↑ ATP” and the “ATP production through glycolysis” value is listed as “increase in ATP production; also recorded: both conditions. ↑ ATP”. In addition, in data set [2] (setting [3]), the maximal respiration entry is recorded as “did not result increase maximal respiration; also recorded: did not result in an increase”.
Take `C=CC(=O)N1CCC(Oc2cc3c(Nc4ccc(Cl)c(Cl)c4F)ncnc3cc2OC)CC1` [Poziotinib, poziotinib]: the respiration result in data set [2] (glucose and galactose conditions, listed as poziotinib) was “did not result in major changes”. In data set [2] (glucose-cultured cells), the glycolysis entry is listed as “dose-dependent decrease”, the maximal respiration result is “dose-dependent decrease” and the toxicity result was “some toxicity”. Also, in data set [2] (listed as poziotinib), the “ATP production through glycolysis” value is “decrease ATP production through glycolysis”.
